From ChEMBL document CHEMBL4229477, “Reevaluating the Substrate Specificity of the L-Type Amino Acid Transporter (LAT1)” (J Med Chem, 2018) come the findings set out here.

The structures appear in SMILES notation.

The target of the assay is Large neutral amino acids transporter small subunit 1 (Homo sapiens, UniProt Q01650). Put plainly: Cis-inhibition of human LAT1 expressed in TREx HEK293 cells at 200 uM assessed as inhibition of [3H]-gabapentin uptake preincubated for 3 mins at 37 degC followed by washing with choline buffer and measured after 3 hrs by scintillation counting analysis relative to BCH. The format is cell-based.
Chain of Large neutral amino acids transporter small subunit 1 (Q01650 whole entry): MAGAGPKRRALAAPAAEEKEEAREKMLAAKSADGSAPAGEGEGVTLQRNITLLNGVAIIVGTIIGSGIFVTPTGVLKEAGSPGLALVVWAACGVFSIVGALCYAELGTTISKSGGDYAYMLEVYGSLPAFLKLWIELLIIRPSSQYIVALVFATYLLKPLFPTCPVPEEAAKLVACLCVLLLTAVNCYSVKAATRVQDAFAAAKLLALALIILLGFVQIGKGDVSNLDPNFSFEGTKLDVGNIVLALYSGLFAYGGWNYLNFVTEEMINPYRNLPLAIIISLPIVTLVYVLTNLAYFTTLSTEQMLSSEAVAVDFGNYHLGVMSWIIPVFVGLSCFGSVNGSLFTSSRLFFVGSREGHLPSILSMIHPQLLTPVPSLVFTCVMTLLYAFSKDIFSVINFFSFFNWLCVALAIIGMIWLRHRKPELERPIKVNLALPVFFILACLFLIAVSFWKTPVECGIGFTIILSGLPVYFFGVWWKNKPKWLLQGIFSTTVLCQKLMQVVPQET

With `N[C@H](Cc1ccc(O)cc1)C(=O)O`, the IC50 (in general, the concentration at which inhibition is half-maximal) is 380 µM.

For the molecule `CC(C)[C@@H](N)C(=O)O`, the IC50 was over 50000 µM.

Turning to `N[C@@H](Cc1cccc(O)c1)C(=O)O`, the IC50 was 130 µM.

As for `Cn1cnc(C[C@H](N)C(=O)O)c1`, the IC50 amounted to 190 µM.

As to `CSCC[C@@H](N)C(=O)O`, the IC50 is 120 µM.

With `N[C@@H](CC1CCCCC1)C(=O)O`, the IC50 was found to be 200 µM.

Regarding `N[C@@H](Cc1cccc(C(=O)O)c1)C(=O)O`, the IC50 worked out at 130 µM.

With `CC(=O)c1cccc(C[C@H](N)C(=O)O)c1`, the IC50 was determined as 92 µM.

Take `CC[C@H](C)[C@@H](N)C(=O)O`: the IC50 is over 3000 µM.

For the molecule `N[C@@H](Cc1cn(Cc2ccccc2)cn1)C(=O)O`, the IC50 was determined as 170 µM.

As for `CNC(=O)c1cccc(C[C@H](N)C(=O)O)c1`, the IC50 amounted to 96 µM.

Take `COC(=O)c1cc(C)cc(C[C@H](N)C(=O)O)c1`: the IC50 worked out at 95 µM.

In the case of `COC(=O)c1cccc(C[C@H](N)C(=O)O)c1`, the IC50 was 36 µM.

Turning to `N[C@@H](Cc1cccnc1)C(=O)O`, the IC50 turned out to be 69 µM.

Consider `COC(=O)Cc1cccc(C[C@H](N)C(=O)O)c1`, for which the half-maximal inhibitory concentration (IC50) was determined as 76 µM.

As to `N[C@@H](Cc1ccccn1)C(=O)O`, the IC50 turned out to be 160 µM.

Turning to `NCc1cccc(C[C@H](N)C(=O)O)c1`, the IC50 was determined as 470 µM.

For `N[C@@H](Cc1cccc(C(=O)OCCO)c1)C(=O)O`, the IC50 is 29 µM.

On to `COC(=O)c1cccc(C[C@@H](N)C(=O)O)c1`, for which the IC50 was 150 µM.

`COC(=O)c1ccc(C[C@H](N)C(=O)O)cc1`: the IC50 came out at 260 µM.

Take `Nc1cccc(C[C@H](N)C(=O)O)c1`: the IC50 worked out at 101 µM.

In the case of `CSCC[C@](N)(Cc1ccccc1)C(=O)O`, the IC50 was found to be 240 µM.

For the molecule `CC(=O)Nc1cccc(C[C@H](N)C(=O)O)c1`, the IC50 amounted to 110 µM.

As for `CC(C)(C)OC(=O)c1cccc(C[C@H](N)C(=O)O)c1`, the IC50 amounted to 17 µM.

Take `Cc1cc(C[C@H](N)C(=O)O)cc(C(=O)O)c1`: the IC50 was 680 µM.

On to `N[C@@H](Cc1ccncc1)C(=O)O`, for which the IC50 amounted to 100 µM.

For the molecule `C[C@](N)(Cc1ccccc1)C(=O)O`, the IC50 came to 130 µM.

Regarding `C[C@@](N)(Cc1ccccc1)C(=O)O`, the IC50 was 810 µM.

For `N[C@@H](Cc1cccc(CO)c1)C(=O)O`, the IC50 amounted to 83 µM.

`N[C@H](CC1CCCCC1)C(=O)O`: the IC50 came to 260 µM.

For the molecule `N[C@H](Cc1c[nH]cn1)C(=O)O` [D-HISTIDINE], the IC50 turned out to be 460 µM.

As for `CC(C)C[C@@H](N)C(=O)O` [D-LEUCINE], the IC50 was found to be 220 µM.

Turning to `N[C@H](Cc1ccccc1)C(=O)O` [D-PHENYLALANINE], the IC50 is 46 µM.

In the case of `N[C@H](Cc1c[nH]c2ccccc12)C(=O)O` [D-TRYPTOPHAN], the IC50 came to 380 µM.

Turning to `N[C@@H](Cc1c[nH]cn1)C(=O)O` [HISTIDINE], the IC50 came to 20 µM.

As to `CC[C@H](C)[C@H](N)C(=O)O` [ISOLEUCINE], the IC50 is 140 µM.

Turning to `CC(C)C[C@H](N)C(=O)O` [LEUCINE], the IC50 was 85 µM.

As for `CSCC[C@H](N)C(=O)O` [METHIONINE], the IC50 is 170 µM.

For `N[C@@H](Cc1ccccc1)C(=O)O` [PHENYLALANINE], the IC50 was determined as 69 µM.

For the molecule `N[C@@H](Cc1c[nH]c2ccccc12)C(=O)O` [TRYPTOPHAN], the IC50 stood at 160 µM.

Turning to `N[C@@H](Cc1ccc(O)cc1)C(=O)O` [TYROSINE], the IC50 was found to be 68 µM.

Take `CC(C)[C@H](N)C(=O)O` [VALINE]: the IC50 came out at 68 µM.
